# Reference: paper PMC6485937 (Archives of toxicology, 2016)
# Columns and labels:
# [1] = system: D. japonica cholinesterase (DjChE); assay: Substrate hydrolysis by DjChE in homogenates; type: biochemical, Dugesia japonica; details: mean ± SE of 6 independent experiments
# [2] = system: D. japonica cholinesterase (DjChE); assay: Kinetics of irreversible; type: biochemical, Dugesia japonica; details: for kr (bimolecular rate constant), rates of inhibition by carbamylating agents / kr (bimolecular rate constant), rates of inhibition by OP oxons: 1 mM ATCh, room temperature, mean± 95% confidence intervals; for Inhibition of ATCh or BTCh hydrolysis: 1 mM ATCh or BTCh
# [3] = system: diethylphosphoryl DjChE (OP inhibited D. japonica cholinesterase); assay: Reactivation of OP inhibited DjChE by oximes or NaF; type: biochemical, Dugesia japonica
# [4] = in mammals; ref Radić et al. 2012; cited from earlier work
# human AChE = human AChE in vitro; ref Radić et al. 2013; cited from earlier work
molecule,measurement,setting,value
"CC(=O)SCC[N+](C)(C)C [ATCh, acetylthiocholine]",Km,[1],123 ± 6 µM
"CCCC(=O)SCC[N+](C)(C)C [BTCh, butyrylthiocholine]",Km,[1],59 ± 4 µM
"CNC(=O)Oc1cccc2ccccc12 [Carbaryl, carbaryl]","kr (bimolecular rate constant), rates of inhibition by carbamylating agents",[2],0.00064± 0.00008 × 10^5 M^−1 min^−1
"CCOP(=O)(OCC)Oc1cc(C)nc(C(C)C)n1 [Diazinon oxon, diazinon oxon]","kr (bimolecular rate constant), rates of inhibition by OP oxons",[2],22±2 × 10^5 M^−1min^−1
"COP(=O)(OC)OC=C(Cl)Cl [Dichlorvos, dichlorvos]","kr (bimolecular rate constant), rates of inhibition by OP oxons",[2],9.1± 0.9 × 10^5 M^−1min^−1
"CCOC(=O)CC(SP(=O)(OC)OC)C(=O)OCC (stereo not shown) [Malaoxon, malaoxon]","kr (bimolecular rate constant), rates of inhibition by OP oxons",[2],0.14± 0.01 × 10^5 M^−1min^−1
"[F-].[Na+] [NaF, sodium fluoride]",Reactivation rate of 10 mM NaF relative to 4 mM 2-PAM,[3]; 10 mM NaF vs 4 mM 2-PAM,four times faster
same,mean kobs of reactivation,"[3]; 10 mM NaF, OP inhibited DjChE",0.023 min⁻¹
"CN(C)C(=O)Oc1cccc([N+](C)(C)C)c1 [Neostigmine, neostigmine]","kr (bimolecular rate constant), rates of inhibition by carbamylating agents",[2],1.3±0.2 × 10^5 M^−1 min^−1
"CCOP(=O)(OCC)Oc1ccc([N+](=O)[O-])cc1 [Paraoxon, paraoxon]","kr (bimolecular rate constant), rates of inhibition by OP oxons",[2],1.7± 0.1 × 10^5 M^−1min^−1
"CNC(=O)Oc1ccc2c(c1)[C@]1(C)CCN(C)[C@@H]1N2C [Physostigmine, physostigmine]","kr (bimolecular rate constant), rates of inhibition by carbamylating agents",[2],0.32± 0.02 × 10^5 M^−1 min^−1
"CN(C)C(=O)Oc1ccc[n+](C)c1 [Pyridostigmine, pyridostigmine]","kr (bimolecular rate constant), rates of inhibition by carbamylating agents",[2],0.10± 0.01 × 10^5 M^−1 min^−1
O=C(C=NO)NCCN1CCCCCC1 [RS194B],Reactivation rate compared with 2-PAM,"[3]; 4 mM oxime, diazinon oxon inhibited DjChE",significantly faster than 2-PAM
same,Crossing of the blood-brain barrier,[4],crosses the blood-brain barrier
same,Rate of reactivation relative to equimolar 2-PAM,human AChE,2.5 times faster
"CC(C)NP(=O)(NC(C)C)OP(=O)(NC(C)C)NC(C)C [iso-OMPA, Tetraisopropyl pyrophosphoramide]",Inhibition of ATCh or BTCh hydrolysis,[2]; 5 mM iso-OMPA,only slow inhibition
same,Inhibition of ATCh or BTCh hydrolysis,[2]; incubation with up to 1 mM iso-OMPA,unable to significantly inhibit
chlorpyrifos oxon,"kr (bimolecular rate constant), rates of inhibition by OP oxons",[2],3.0± 0.3 × 10^5 M^−1min^−1
pyridine-2-aldoxime [2-PAM],mean kobs of reactivation,"[3]; 4 mM 2-PAM, diazinon oxon inhibited DjChE",0.0058 min⁻¹
